Converted amounts (≈) assume the structure as drawn.
Columns and labels:
[1] = Solubility was measured in 50 mM phosphate buffer at pH 7.4; assay type: physicochemical
[2] = biological target: Glutamate receptor ionotropic, AMPA (Rattus norvegicus, UniProt P19490+P19491+P19492+P19493); assay: In vitro binding affinity against Ionotropic glutamate receptor AMPA binding site using [3H]- AMPA as radioligand on rat cortical synaptosomal membranes
Mus musculus = species on record: Mus musculus; assay: Anticonvulsant activity in mice was determined from maximal electroshock assay; assay type: functional
[3] = In vitro binding affinity against glycine receptor binding site using [3H]- Glycine as radioligand on rat cortical synaptosomal membranes

| Structure (SMILES) | solubility [1] | IC50 [2] | IC50 [3] | ED50 (Mus musculus) |
| --- | --- | --- | --- | --- |
| CN1CCc2c([N+](=O)[O-])cc3nc(O)c(O)nc3c2C1 | 8.6 µg/mL (≈ 31.1 µM) | – | 0.37 µM | 0.44 mg/kg |
| CCc1ccc2nc(O)c(O)nc2c1CN(C)CC(=O)O | – | > 10 µM | > 10 µM | – |
| CCc1c(Br)cc2nc(O)c(O)nc2c1CN(C)CC(=O)O | 140 µg/mL (≈ 378 µM) | 2.32 µM | – | – |

Now from value to compound, other results behind:

| solubility [1] | IC50 [2] | IC50 [3] | Structure (SMILES) | ED50 (Mus musculus) |
| --- | --- | --- | --- | --- |
| 170 µg/mL (≈ 462 µM) | 1.18 µM | – | C=Cc1c(Br)cc2nc(O)c(O)nc2c1CN(C)CC(=O)O | – |
| 150 µg/mL (≈ 412 µM) | 1.59 µM | > 10 µM | CCOC(=O)CN(C)Cc1c(CC)c([N+](=O)[O-])cc2nc(O)c(O)nc12 | – |
| 420 µg/mL (≈ 1250 µM) | 0.14 µM | 0.47 µM | CCc1c([N+](=O)[O-])cc2nc(O)c(O)nc2c1CN(C)CC(=O)O | – |

— ChEMBL document CHEMBL1132249, “Design and synthesis of novel quinoxaline-2,3-dione AMPA/GlyN receptor antagonists: amino acid derivatives” (J Med Chem, 1999)
